Data published in ChEMBL document CHEMBL1201862, “PubChem BioAssay data set” (2004).
Calls of active or inactive are those of the source.

Key:
[1] = biological target: T1, Zinc finger protein mex-5 (Caenorhabditis elegans, UniProt Q9XUB2); test: MEX-5/TCR-2 RNA interaction inhibitors, dose response, biochemical, C. elegans, fluorescence polarization (AID 1960)
T1 sequence (Q9XUB2 whole entry): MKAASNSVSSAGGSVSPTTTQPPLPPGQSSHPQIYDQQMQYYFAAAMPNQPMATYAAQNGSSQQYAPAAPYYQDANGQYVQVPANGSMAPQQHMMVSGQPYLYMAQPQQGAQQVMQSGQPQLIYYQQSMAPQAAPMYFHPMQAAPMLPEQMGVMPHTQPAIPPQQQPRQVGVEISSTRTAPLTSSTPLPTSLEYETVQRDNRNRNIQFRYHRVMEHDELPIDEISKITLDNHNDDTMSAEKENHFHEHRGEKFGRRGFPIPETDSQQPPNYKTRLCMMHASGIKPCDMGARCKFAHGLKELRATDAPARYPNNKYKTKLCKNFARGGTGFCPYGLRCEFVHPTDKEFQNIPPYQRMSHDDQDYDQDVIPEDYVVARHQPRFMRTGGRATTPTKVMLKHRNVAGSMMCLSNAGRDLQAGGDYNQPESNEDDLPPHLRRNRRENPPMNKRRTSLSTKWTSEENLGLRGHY

SUMO-activating enzyme [2] = biological target: T2, SUMO-activating enzyme (Homo sapiens, UniProt Q9UBT2); test: inhibitors of in vitro SUMOylation cascade, primary screen, biochemical, HTRF, uHTS (AID 2006); type: protein-complex assay
[3] = biological target: T3, RNA-binding protein pos-1 (Caenorhabditis elegans, UniProt G5EF15); test: inhibitors of POS-1/mex-3 RNA binding, dose response, biochemical, fluorescence polarization (AID 1964);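 further: purified POS-1 fused to maltose binding protein made in E. coli; potency of compounds blocking POS-1 binding to fluorescent RNA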
T3 sequence (G5EF15 whole entry): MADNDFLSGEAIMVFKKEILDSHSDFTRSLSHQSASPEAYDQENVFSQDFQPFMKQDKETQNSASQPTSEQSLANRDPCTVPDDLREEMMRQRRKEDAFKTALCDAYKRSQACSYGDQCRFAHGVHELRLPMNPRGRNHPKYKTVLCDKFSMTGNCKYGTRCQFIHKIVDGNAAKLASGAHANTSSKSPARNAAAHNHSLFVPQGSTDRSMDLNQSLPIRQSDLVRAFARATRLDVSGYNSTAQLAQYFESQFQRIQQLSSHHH

SUMO-activating enzyme [4] = biological target: T2, SUMO-activating enzyme; test: SUMOylation inhibitor hit validation, confirmation, SUMOylation inhibitor project, biochemical, AlphaScreen (AID 2018); type: functional
[5] = mammalian cell cytotoxicity, dose response, cytotoxicity control, plate reader, cherry-pick samples (AID 504397); type: functional, cell-based
CAAX prenyl protease 2 = biological target: T4, CAAX prenyl protease 2 (Saccharomyces cerevisiae S288c, UniProt Q03530); type: biochemical
T4 sequence (Q03530 whole entry): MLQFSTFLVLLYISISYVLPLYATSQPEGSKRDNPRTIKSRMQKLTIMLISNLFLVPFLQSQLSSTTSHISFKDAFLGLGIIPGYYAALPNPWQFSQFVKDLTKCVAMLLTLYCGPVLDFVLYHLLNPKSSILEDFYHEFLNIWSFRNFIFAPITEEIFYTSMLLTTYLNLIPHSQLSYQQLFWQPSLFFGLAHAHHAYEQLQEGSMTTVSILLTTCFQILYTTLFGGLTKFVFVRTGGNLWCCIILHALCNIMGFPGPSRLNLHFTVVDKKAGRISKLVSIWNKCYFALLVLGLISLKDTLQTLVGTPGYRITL

Major prion protein = Major prion protein (Homo sapiens, UniProt P04156); type: functional, cell-based
[6] = biological target: Intestinal-type alkaline phosphatase (Mus musculus, UniProt P24822); test: mouse intestinal alkaline phosphatase activators, dose response, biochemical, luminescence, uHTS hits (AID 488783); type: functional
Fibrinogen beta chain [7] = biological target: T5, Fibrinogen beta chain (Homo sapiens, UniProt P02675); test: Fluorescence polarization-based biochemical high throughput dose response assay to identify inhibitors that disrupt the binding of a cyclic peptide (Tn7) to the fibrin proteolytic product D-Dimer and fragment E complex [DD(E )].
[8] = biological target: Intestinal-type alkaline phosphatase (Homo sapiens, UniProt P09923); test: activation of human intestinal alkaline phosphatase – biochemical, dose response (AID 488873); type: functional
[9] = biological target: T6, Endoribonuclease toxin MazF (Escherichia coli K-12, UniProt P0AE70); test: MazF toxin RNase activators, dose response, biochemical, fluorescence, single-stranded RNA substrate, uHTS hits (AID 588481); type: functional
T6 sequence (P0AE70 whole entry): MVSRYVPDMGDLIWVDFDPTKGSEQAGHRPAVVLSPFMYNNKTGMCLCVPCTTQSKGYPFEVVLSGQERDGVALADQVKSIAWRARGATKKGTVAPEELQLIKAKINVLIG

[10] = biological target: T6, Endoribonuclease toxin MazF; test: fluorescent RNA oligo signal without MazF, dose response, counter-screen for MazEF activator project, biochemical, fluorescence, single-stranded RNase substrate (AID 588502); type: functional
[11] = biological target: T7, Alkaline phosphatase, tissue-nonspecific isozyme (Homo sapiens, UniProt P05186); test: TNAP enzyme activators, dose response, selectivity assay for mouse IAP activator project, biochemical, TNAP isozyme, mouse IAP uHTS hits (AID 488880); type: functional
T7 sequence (P05186 whole entry): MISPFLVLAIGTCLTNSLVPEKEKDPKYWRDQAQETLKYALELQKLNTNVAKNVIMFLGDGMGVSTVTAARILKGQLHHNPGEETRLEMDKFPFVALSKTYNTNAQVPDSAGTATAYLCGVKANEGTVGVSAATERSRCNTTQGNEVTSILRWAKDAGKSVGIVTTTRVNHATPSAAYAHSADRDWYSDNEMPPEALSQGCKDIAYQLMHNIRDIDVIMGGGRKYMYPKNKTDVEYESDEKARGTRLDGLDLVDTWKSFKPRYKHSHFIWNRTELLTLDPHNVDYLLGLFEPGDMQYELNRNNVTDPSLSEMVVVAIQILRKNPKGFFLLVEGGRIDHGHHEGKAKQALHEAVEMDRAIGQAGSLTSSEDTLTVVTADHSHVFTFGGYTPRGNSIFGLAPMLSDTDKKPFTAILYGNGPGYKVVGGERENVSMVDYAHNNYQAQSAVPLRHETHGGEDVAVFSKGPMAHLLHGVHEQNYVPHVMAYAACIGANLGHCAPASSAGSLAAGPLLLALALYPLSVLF

Large T antigen = Large T antigen (Simian virus 40, UniProt P03070); type: functional, Betapolyomavirus macacae;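 further: Confirmatory-stage PubChem screen for compounds that inhibit SV40 T antigen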
Genome polyprotein = Genome polyprotein (dengue virus type 2, UniProt P29990); test: Dengue-2 NS5 methyltransferase inhibitors, primary screen, biochemical, confirmation dose response (AID 588689); type: functional
[12] = biological target: Glucose-6-phosphate 1-dehydrogenase (Homo sapiens, UniProt P11413); test: human G6PD enzyme inhibitors, dose response, selectivity assay for P. falciparum G6PD inhibitor project, biochemical, fluorescence (AID 504792); type: functional
[13] = biological target: Cyclin-dependent kinase 5/CDK5 activator 1 (Homo sapiens, UniProt Q00535); test: CDK5/p35 kinase inhibitors, dose response, biochemical, cherry-picked samples, set 2 (AID 504545)
Fibrinogen beta chain [14] = biological target: T5, Fibrinogen beta chain; test: Fluorescence polarization-based biochemical high throughput dose response assay to identify inhibitors that disrupt the binding of a cyclic peptide (Tn6) to the fibrin proteolytic product D-Dimer and fragment E complex [DD(E )].
[15] = biological target: Induced myeloid leukemia cell differentiation protein Mcl-1 (Homo sapiens, UniProt Q07820); type: functional
[16] = Counterscreen for AddAB inhibitors: absorbance-based bacterial cell-based high throughput dose response assay for inhibitors of bacterial viability. [Related pubchem assays (depositor defined):AID435030, AID449728, AID449731, AID488942, AID488955, AID488956]; type: functional
Paired box protein Pax-8 = Paired box protein Pax-8 (Homo sapiens, UniProt Q06710); test: inhibitors of PAX8-driven TPO luciferase reporter, dose response, RMG-I cells, cherry-pick (AID 687027); type: functional, cell-based;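 further: luciferase reporter driven by Pax8 target thyroperoxidase promoter measured by SteadyGlo luminescence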
Exodeoxyribonuclease V = Exodeoxyribonuclease V (Escherichia coli (strain K12), UniProt P04993+P07648+P08394); test: E. coli RecBCD inhibitors, dose response, counter-screen for AddAB inhibitor project, absorbance, V66 E. coli, mutant T4 phage (AID 492957); type: functional, cell-based, Escherichia coli str. K-12 substr. MG1655

CC(=O)c1ccc(-c2ccc(/C=C(/Sc3n[nH]c(C)n3)C(=O)O)o2)cc1
EC50 [1]: 14.9 µM (active) | IC50 (SUMO-activating enzyme [2]): 74.2 µM (active) | EC50 [3]: 21.6 µM (active) | IC50 (SUMO-activating enzyme [4]): 4.2 µM (active)

Cc1ccc(-c2csc(N3CCN(c4cc5c(cc4Cl)nc(-c4ccncc4)n5CCOCCO)CC3)n2)cc1
AC50 [5]: 231 µM (active) | AC50 (CAAX prenyl protease 2): 6.2 µM (active)

Oc1cc2c(cc1O)C1c3ccc(O)c(O)c3OCC1(O)C2 (stereo not drawn) [HAEMATOXYLIN]
IC50 (Major prion protein): 14 µM (inactive) | EC50 [6]: 62.1 µM (active) | IC50 (Fibrinogen beta chain [7]): > 83.3 µM (inactive) | EC50 [8]: 50 µM (active) | EC50 [9]: 30.1 µM (inactive) | IC50 (cells): > 138 µM (inactive) | EC50 [10]: 72.8 µM (inactive) | EC50 [11]: 85.7 µM (active) | IC50 (Large T antigen): 4.66 µM (active) | IC50 (Genome polyprotein): 17.4 µM (active) | IC50 [12]: 66.5 µM (inactive) | AC50 [13]: 17.5 µM (active) | IC50 (Fibrinogen beta chain [14]): 9.33 µM (active) | IC50 [15]: 3.44 µM (active)

COc1cc(NC(=O)c2ccc([N+](=O)[O-])o2)ccc1NC(=O)c1ccco1
IC50 [16]: > 119 µM (inactive) | AC50 (Paired box protein Pax-8): 3.75 µM (active) | IC50 (Exodeoxyribonuclease V): > 119 µM (inactive)
